Test results from paper PMC10539501 (Nature Communications, 2023).
Starred links: 1 amine or outer side, 2 acyl side, 3 side chain; linkers in the order of their positions; H or OH if unused. Non-standard residues stand in square brackets, D forms with d. Residues, ends and D or L forms follow the SMILES beside them. X3 = CC(C)C[C@H](N[*:1])C(=S)N[C@H](CC(C)C)C(=O)[*:2]; NMeL = CN[C@@H](CC(C)C)C(=O)O

Experiments:
in vitro [1] = settings: both, human, plasma
physchem = settings: pH 7.4
in vitro [2] = settings: human, microsomes
Description: (§1) A stability assessment of the peptides was done in simulated gastric (SGF) and intestinal (SIF) fluids and human liver microsomes. The degradation kinetics of the aliquoted samples at desired time points were analyzed through RP-HPLC.

in vivo = settings: male, Wistar, rat
Description: (§2) All animals were housed individually in the animal facility at Anthem Biosciences Pvt. Ltd and were acclimatized for 3 days. All animals were fasted overnight before dosing, whereas access to water was provided ad libitum. Peptides were administered orally and via s.c. route and blood samples were collected at different time points through a jugular vein catheter.

[3] = HDX of amide protons by NMR in DMSO-d6:D2O (8:2); settings: HDX by NMR, 20% D2O in DMSO-d6
Description: (§3) As hydrogen bonding and solvation of NH groups play an important role in the permeability of macrocycles, we determined the solvent accessibility of individual amide protons in 10 and 10a–10f by hydrogen-deuterium exchange (HDX) through NMR spectroscopy (Figs. 2a–c).
(§4) Spectra were recorded on a Bruker AV 500 MHz spectrometer at 25 °C.

[4] = format: physicochemical
[5] = PAMPA passive permeability; format: in vitro ADME; settings: for Papp: Pe Avg;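 for all read-outs here: passive permeability across an artificial membrane in 96-well pre-coated PAMPA plates, which lack transporters and efflux systems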
Description: Encouraged by this, the passive permeability of the analogs was evaluated using an artificial membrane (PAMPA), which measures permeability of compounds in the absence of transporters and efflux systems[32].
96-well BD Corning® pre-coated PAMPA plates were used following the supplier’s protocol, details in Supplementary Information.

[6] = format: physicochemical; remark: listed apart in the source
in vitro [7] = settings: pig, simulated intestinal fluid
Description: (§5) We next assessed the stability of the macrocyclic peptides in Simulated Intestinal Fluid (SIF)[42], comprising of pancreatin, which is a mixture of several proteases produced by the exocrine cells of the porcine pancreas.
as §1

in vitro [8] = settings: both, human, plasma; remark: listed apart in the source
Description: Blood was freshly drawn from three healthy adults, two male and one person of 26–28 year old. […] The plasma was separated by centrifugation. […] For checking metabolic stability, the required volume of plasma was pre-incubated at 37 °C prior to the experiment for 2 min, followed by spiking with the peptides. At different time points, plasma was aliquoted. The supernatant was separated and used for RP-HPLC quantification. Rapid Equilibrium Dialysis (RED) assay was performed to assess the plasma protein binding of the peptides following the supplier’s protocol.

Caco-2 cells = test: in vitro; format: in vitro ADME, human; settings: Caco-2
Description: (§6) The Caco-2 cell (HTB-37^TM from ATCC, procured from NCCS, Pune) monolayer was washed and pre-incubated at 37 °C and 5% CO2 for 30 min with HBSS-HEPES buffer containing 1% DMSO prior to experimentation. The assay was performed 21 days post-seeding of cells. TEER values were measured before starting and after the completion of the assay. Acceptor and donor well concentrations of the peptides and controls were assessed through LC-MS/MS.

in vitro [9] = format: in vitro ADME, human
Description: as §6

[10] = HDX of amide protons by NMR in CDCl3:CD3OD (8:2)
Description: as §3, §4

[11] = rat, in vivo, po, 10 mg/kg
Description: as §2

pepsin [12] = biological target: T1, pepsin (Sus scrofa, UniProt P00791); test: in vitro; settings: simulated gastric fluid, pH 1.2
Description: as §1

[13] = Retention in hydrophobic C18 column by HPLC; settings: Supplementary Fig 3d, logD7.4 vs tR
pepsin [14] = biological target: T1, pepsin; settings: pH 1.2
Description: as §1

[15] = 20% CD3OD in CDCl3, % remaining after 24 hours
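Throughout, for Papp A-B avg (second block): Caco-2 monolayers used 21 days after seeding in HBSS-HEPES buffer with 1% DMSO, donor and acceptor levels quantified by LC-MS/MS, TEER checked before and after.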
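Throughout, for Papp A-B set 1 (second block): Caco-2 monolayers used 21 days after seeding in HBSS-HEPES buffer with 1% DMSO, donor and acceptor levels quantified by LC-MS/MS, TEER checked before and after.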
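Throughout, for Papp A-B set 2 (second block): Caco-2 monolayers used 21 days after seeding in HBSS-HEPES buffer with 1% DMSO, donor and acceptor levels quantified by LC-MS/MS, TEER checked before and after.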
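Throughout, for Papp B-A avg (second block): Caco-2 monolayers used 21 days after seeding in HBSS-HEPES buffer with 1% DMSO, donor and acceptor levels quantified by LC-MS/MS, TEER checked before and after.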

T1 sequence (P00791 60-385): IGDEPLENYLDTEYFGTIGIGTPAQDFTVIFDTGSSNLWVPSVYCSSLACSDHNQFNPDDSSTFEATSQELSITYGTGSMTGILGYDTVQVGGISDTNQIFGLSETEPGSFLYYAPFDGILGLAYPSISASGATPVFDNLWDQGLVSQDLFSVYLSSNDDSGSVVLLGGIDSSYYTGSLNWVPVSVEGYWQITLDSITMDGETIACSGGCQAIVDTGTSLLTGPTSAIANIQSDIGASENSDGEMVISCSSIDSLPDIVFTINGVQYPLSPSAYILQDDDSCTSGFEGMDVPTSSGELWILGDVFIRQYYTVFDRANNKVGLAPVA
Description for human liver microsomes: as §1
Description for pancreatin: as §5, §1

SMILES: CC(C)C[C@@H]1NC(=O)[C@@H](CC(C)C)NC(=S)[C@H](CC(C)C)NC(=O)[C@H](Cc2ccc(O)cc2)NC(=O)[C@H]2CCCN2C(=O)[C@H](CC(C)C)NC1=O [10f] (cyclo(LL[dP]Y[X3]))
- fraction unbound (in vitro [1]): 0.02
- Protein binding set1 (plasma proteins): 100%
- Protein binding set2 (plasma proteins): 100%
- Protein binding set3 (plasma proteins): 95%
- logD (physchem): 1.53
- microsomal CLint (in vitro [2]): 33 µL/min/mg
- remaining at 5 min (in vitro [2]): 78%
- remaining at 10 min (in vitro [2]): 71%
- remaining at 20 min (in vitro [2]): 62%
- remaining at 0.5 h (in vitro [2]): 56%
- remaining at 0.75 h (in vitro [2]): 48%
- remaining at 1 h (in vitro [2]): 38%
- AUC(0-t) (in vivo; iv): 390 ng·h/mL
- Cmax (in vivo; iv): 580 ng/mL
- MRT (in vivo; iv): 1.1 h
- Vd (in vivo; iv): 3.2 L/kg
- clearance (in vivo; iv): 42.2 mL/min/kg
- bioavailability (in vivo; po): 3.1%
- AUC(0-t) (in vivo; po, 10 mg/kg): 121 ng·h/mL
- Cmax (in vivo; po, 10 mg/kg): 61.7 ng/mL
- MRT (in vivo; po, 10 mg/kg): 2.1 h
- level at 3 h (in vivo; po, 10 mg/kg): 13.1 ng/mL
- Half lives (SIF) Avg (pancreatin): 128 min
- Half lives (SIF) set1 (pancreatin): 184 min
- Half lives (SIF) set2 (pancreatin): 94 min
- Half lives (SIF) set3 (pancreatin): 108 min
- Half lives (human liver microsomes): 42.3
- Half-life of D-Leu1 amide proton (HDX) [3]: 1 min
- Half-life of Leu2 amide proton (HDX) [3]: 11.7 h
- Half-life of Leu3 amide proton (HDX) [3]: 13.2 h
- Half-life of Leu6 amide proton (HDX) [3]: 12 h
- Half-life of Tyr5 amide proton (HDX) [3]: 18 h
- % solubility [4]: 23%
- Pe Avg [5]: 7.3 ×10⁻⁶ cm/s
- Pe set1 [5]: 7.27 ×10⁻⁶ cm/s
- Pe set2 [5]: 9.86 ×10⁻⁶ cm/s
- Pe set3 [5]: 4.7 ×10⁻⁶ cm/s
- Papp [5]: 7.3 ×10⁻⁶ cm/s
- logD heptane ethylene glycol [6]: 1.08
- half-life (in vitro [7]): 2.1 h
- remaining at 10 min (in vitro [7]): 80.9%
- remaining at 0.5 h (in vitro [7]): 67.2%
- remaining at 1 h (in vitro [7]): 56.5%
- remaining at 2 h (in vitro [7]): 48.1%
- remaining at 4 h (in vitro [7]): 42.9%
- remaining at 8 h (in vitro [7]): 31.7%
- remaining at 12 h (in vitro [7]): 24.6%
- remaining at 24 h (in vitro [7]): 17.2%
- half-life (in vitro [8]): 18 h
- remaining at 1 h (in vitro [8]): 92%
- remaining at 3 h (in vitro [8]): 87%
- remaining at 5 h (in vitro [8]): 84%
- remaining at 7 h (in vitro [8]): 79%
- remaining at 9 h (in vitro [8]): 63%
- remaining at 12 h (in vitro [8]): 54%
- remaining at 24 h (in vitro [8]): 38%
- remaining at 36 h (in vitro [8]): 22%
- remaining at 48 h (in vitro [8]): 25%
- remaining at 60 h (in vitro [8]): 26%
- remaining at 72 h (in vitro [8]): 21%
- Papp A-B avg (second block) (Caco-2 cells): 3.01 ×10⁻⁶ cm/s
- Papp A-B set 1 (second block) (Caco-2 cells): 4.57 ×10⁻⁶ cm/s
- Papp A-B set 2 (second block) (Caco-2 cells): 1.45 ×10⁻⁶ cm/s
- Papp B-A avg (second block) (Caco-2 cells): 41.8 ×10⁻⁶ cm/s
- Papp B-A set 1 (second block) (Caco-2 cells): 39.7 ×10⁻⁶ cm/s
- Papp B-A set 2 (second block) (Caco-2 cells): 43.9 ×10⁻⁶ cm/s
- Papp A→B (in vitro [9]; Caco-2, Papp A-B + Elacridar avg): 6.8 ×10⁻⁶ cm/s
- Papp A→B (in vitro [9]; Caco-2, Papp A-B avg): 3.01 ×10⁻⁶ cm/s
- Papp B→A (in vitro [9]; Caco-2, Papp B-A + Elacridar avg): 8.9 ×10⁻⁶ cm/s
- Papp B→A (in vitro [9]; Caco-2, Papp B-A avg): 41.8 ×10⁻⁶ cm/s
- Half-life of D-Leu1 amide proton (HDX) ([10]; 20% CD3OD in CDCl3): 0.167 h
- Half-life of Leu2 amide proton (HDX) ([10]; 20% CD3OD in CDCl3): 8.33 h
- Half-life of Leu3 amide proton (HDX) ([10]; 20% CD3OD in CDCl3): 3.27 h
- Half-life of Leu6 amide proton (HDX) ([10]; 20% CD3OD in CDCl3): > 24 h
- Half-life of Tyr5 amide proton (HDX) ([10]; 20% CD3OD in CDCl3): > 24 h
- % intact NH, Leu6 [10, 15]: 52%
- % intact NH, Tyr5 [10, 15]: 67%
- AUClast p.o [11]: 120.8 ng·h/mL
- time over which the peptide is detectable in plasma [11]: ≥ 8 h
- half-life (pepsin [12]): 1.3 h
- remaining at 5 min (pepsin [12]): 78%
- remaining at 10 min (pepsin [12]): 73%
- remaining at 20 min (pepsin [12]): 67%
- remaining at 0.5 h (pepsin [12]): 61%
- remaining at 1 h (pepsin [12]): 54%
- remaining at 2 h (pepsin [12]): 44%
- remaining at 4 h (pepsin [12]): 34%
- remaining at 8 h (pepsin [12]): 24%
- remaining at 12 h (pepsin [12]): 15%
- remaining at 24 h (pepsin [12]): 9%
- tR [13]: 14 min

SMILES: CC(C)C[C@@H]1NC(=O)[C@H](Cc2ccc(O)cc2)NC(=O)[C@H]2CCCN2C(=O)[C@H](CC(C)C)NC(=O)[C@H](CC(C)C)N(C)C(=O)[C@@H](CC(C)C)NC1=O [10h] (cyclo(L[dL][NMeL]L[dP]Y))
- fraction unbound (in vitro [1]): 0.3
- logD (physchem): 1.46
- microsomal CLint (in vitro [2]): 49 µL/min/mg
- remaining at 2 min (in vitro [2]): 99%
- remaining at 10 min (in vitro [2]): 94%
- remaining at 20 min (in vitro [2]): 65%
- remaining at 0.5 h (in vitro [2]): 49%
- remaining at 0.75 h (in vitro [2]): 27%
- remaining at 1 h (in vitro [2]): 13%
- AUC(0-t) (in vivo; iv): 212 ng·h/mL
- Cmax (in vivo; iv): 435 ng/mL
- MRT (in vivo; iv): 0.4 h
- Vd (in vivo; iv): 2.3 L/kg
- clearance (in vivo; iv): 79.5 mL/min/kg
- bioavailability (in vivo; po): 1.2%
- AUC(0-t) (in vivo; po, 10 mg/kg): 25.9 ng·h/mL
- Cmax (in vivo; po, 10 mg/kg): 13.1 ng/mL
- MRT (in vivo; po, 10 mg/kg): 1.3 h
- level at 3 h (in vivo; po, 10 mg/kg): 3.2 ng/mL
- Half lives (human liver microsomes): 28.7
- Papp [5]: 9.07 ×10⁻⁶ cm/s
- half-life (in vitro [7]): 0.933 h
- remaining at 10 min (in vitro [7]): 71%
- remaining at 0.5 h (in vitro [7]): 63%
- remaining at 1 h (in vitro [7]): 47%
- remaining at 2 h (in vitro [7]): 27%
- remaining at 4 h (in vitro [7]): 16%
- remaining at 8 h (in vitro [7]): 2.66%
- remaining at 12 h (in vitro [7]): 1%
- Half lives (SGF) Avg (pepsin [14]): 65.5 min
- Half lives (SGF) set1 (pepsin [14]): 52 min
- half-life (in vitro [8]): 18 h
- remaining at 2 h (in vitro [8]): 89%
- remaining at 4 h (in vitro [8]): 77%
- remaining at 8 h (in vitro [8]): 68%
- remaining at 16 h (in vitro [8]): 56%
- remaining at 24 h (in vitro [8]): 30%
- remaining at 48 h (in vitro [8]): 13%
- remaining at 72 h (in vitro [8]): 3.27%
- Fold Change of AUClast p.o [11]: 29
- remaining at 2 min (pepsin [12]): 97%
- remaining at 10 min (pepsin [12]): 89%
- remaining at 20 min (pepsin [12]): 79%
- remaining at 0.5 h (pepsin [12]): 67%
- remaining at 1 h (pepsin [12]): 57%
- remaining at 2 h (pepsin [12]): 26%
- remaining at 4 h (pepsin [12]): 16%
- remaining at 8 h (pepsin [12]): 8%
- remaining at 12 h (pepsin [12]): 3%
